Key:
Type in all cases: cell-based, human
[1] = test system: SK-MEL-5; test: NCI multiple cell line test (SRB); conditions: SK-MEL-5 (Melanoma), 48 h
[2] = test system: MDA-MB-231/ATCC; test: NCI multiple cell line test (SRB); conditions: MDA-MB-231/ATCC (Breast Cancer), 48 h
[3] = test system: MCF-7 cells; test: Growth response, MTT dye conversion assay; conditions: FIG. 7; 48 hours; compared with cisplatin
[4] = test system: EKVX; test: NCI multiple cell line test (SRB); conditions: EKVX (Non-Small Cell Lung Cancer), 48 h
[5] = test system: SW-620; test: NCI multiple cell line test (SRB); conditions: SW-620 (Colon Cancer), 48 h
[6] = test system: M14; test: NCI multiple cell line test (SRB); conditions: M14 (Melanoma), 48 h
Experimental: (§1) The NCI tested MT477 60 cell line test, and reported the GI50, TGI, and LC50 values of MT477 for each cell line, reported herein at Table 3.
(§2) Methodology: The NCI conducted a test of the MT477 drug against about 60 human cell lines, with a minimum of five concentrations of MT477 at 10-fold dilutions, with no more than 5(10)^−5 molar of drug being used. A 48 hour continuous drug exposure was used, and a sulforhodamine B (SRB) protein assay was used to estimate cell viability and growth. The human tumor cell lines of the cancer screening panel were grown in RPMI 1640 medium containing 5% fetal bovine serum and 2 mM L-glutamine. Cells were inoculated into 96 well microtiter plates in 100 μL at plating densities ranging from 5,000 to 40,000 cells/well depending on the doubling time of individual cell lines. After cell inoculation, the microtiter plates are incubated at 37° C., 5% CO2, 95% air, and 100% relative humidity for 24 h prior to addition of experimental drugs.
(§3) After 24 h, two plates of each cell line were fixed in situ with TCA, to represent a measurement of the cell population for each cell line at the time of drug addition (Tz). MT477 was solubilized in dimethyl sulfoxide at 400-fold the desired final maximum test concentration and stored frozen prior to use. At the time of drug addition, an aliquot of frozen concentrate was thawed and diluted to twice the desired final maximum test concentration with complete medium containing 50 μg/ml gentamicin. Additional four, 10-fold or ½ log serial dilutions were made to provide a total of five drug concentrations plus control. Aliquots of 100 μl of these different drug dilutions were added to the appropriate microtiter wells already containing 100 μl of medium, resulting in the required final drug concentrations.
(§4) Following drug addition, the plates were incubated for an additional 48 h at 37° C., 5% CO2, 95% air, and 100% relative humidity. For adherent cells, the assay was terminated by the addition of cold TCA. Cells were fixed in situ by the gentle addition of 50 μl of cold 50% (w/v) TCA (final concentration, 10% TCA) and incubated for 60 minutes at 4° C. The supernatant was discarded, and the plates were washed five times with tap water and air dried. Sulforhodamine B (SRB) solution (100 μl) at 0.4% (w/v) in 1% acetic acid was added to each well, and plates were incubated for 10 minutes at room temperature. After staining, unbound dye was removed by washing five times with 1% acetic acid and the plates were air-dried. Bound stain was subsequently solubilized with 10 mM trizma base, and the absorbance was read on an automated plate reader at a wavelength of 515 nm. For suspension cells, the methodology was the same except that the assay was terminated by fixing settled cells at the bottom of the wells by gently adding 50 μl of 80% TCA (final concentration, 16% TCA). Using the seven absorbance measurements (time zero, (Tz), control growth, (C), and test growth in the presence of drug at the five concentration levels (Ti)), the percentage growth was calculated at each of the drug concentrations levels. Percentage growth inhibition was calculated as: [(Ti−Tz)/(C−Tz)]×100 for concentrations for which Ti>/=Tz [(Ti−Tz)/Tz]×100 for concentrations for which Ti<Tz.
(§5) Three dose response parameters were calculated for each experimental agent. Growth inhibition of 50% (GI50) was calculated from [(Ti−Tz)/(C−Tz)]×100=50, which is the drug concentration resulting in a 50% reduction in the net protein increase (as measured by SRB staining) in control cells during the drug incubation. The drug concentration resulting in total growth inhibition (TGI) was calculated from Ti=Tz. The LC50 (concentration of drug resulting in a 50% reduction in the measured protein at the end of the drug treatment as compared to that at the beginning) indicating a net loss of cells following treatment was calculated from [(Ti−Tz)/Tz]×100=−50. […]

[7] = test system: HL-60 (TB); test: NCI multiple cell line test (SRB); conditions: HL-60 (TB) (Leukemia), 48 h
Experimental: as §1, §2, §3, §4, §5

[8] = test system: NCI-H322M; test: NCI multiple cell line test (SRB); conditions: NCI-H322M (Non-Small Cell Lung Cancer), 48 h
Experimental: as §1, §2, §3, §4, §5

[9] = test system: A549 cells; test: Growth response, MTT dye conversion assay; conditions: low doses (FIG. 13 as printed)
[10] = test system: RPMI-8226; test: NCI multiple cell line test (SRB); conditions: RPMI-8226 (Leukemia), 48 h
[11] = test system: COLO 205; test: NCI multiple cell line test (SRB); conditions: COLO 205 (Colon Cancer), 48 h
[12] = test system: UACC-257; test: NCI multiple cell line test (SRB); conditions: UACC-257 (Melanoma), 48 h
[13] = test system: MCF7; test: NCI multiple cell line test (SRB)
[14] = Homo sapiens, read-out: −log10GI50 (converted)

COC(=O)C1=C(C(=O)OC)SC2(S1)C(C(=O)OC)=C(C(=O)OC)SC1=C2c2cccc(OC)c2N(C(=O)CN2C(=O)CCC2=O)C1(C)C [MT477]
IC50 [1, 14]: 6.17 µM
−log10LC50 [1]: * (effect not reached at maximum dose of 0.05 millimolar)
−log10TGI [1]: 4.51 molar
IC50 [2, 14]: 851 nM
−log10LC50 [2]: 5.46 molar
−log10TGI [2]: 5.76 molar
growth response [3]: more effective than cisplatin
−log10LC50 [4]: 4.34 molar
−log10TGI [4]: 4.7 molar
IC50 [4, 14]: 8.51 µM
IC50 [5, 14]: 1660 nM
−log10LC50 [5]: * (effect not reached at maximum dose of 0.05 millimolar)
−log10TGI [5]: * (effect not reached at maximum dose of 0.05 millimolar)
−log10GI50 [6]: 602 molar
−log10LC50 [7]: * (effect not reached at maximum dose of 0.05 millimolar)
−log10TGI [7]: 4.83 molar
IC50 [7, 14]: 2190 nM
IC50 [8, 14]: 6.46 µM
−log10TGI [8]: 4.87 molar
growth response at low concentrations [9]: effective even at very low doses, including micromolar dosages
IC50 [10, 14]: 7.59 µM
−log10LC50 [10]: 4.42 molar
−log10TGI [10]: 4.77 molar
−log10LC50 [11]: * (effect not reached at maximum dose of 0.05 millimolar)
−log10TGI [11]: 5.19 molar
IC50 [11, 14]: 1660 nM
IC50 [12, 14]: 1480 nM
−log10LC50 [12]: 4.55 molar
−log10TGI [12]: 5.53 molar
IC50 ([13]; Homo sapiens, MCF7 (Breast Cancer), 48 h, read-out: −log10GI50 (converted)): 1780 nM
GI50 ([13]; Homo sapiens, NCI-MCF7, MT477 ACTUAL): 1580 nM
−log10LC50 ([13]; MCF7 (Breast Cancer), 48 h): * (effect not reached at maximum dose of 0.05 millimolar)
−log10TGI ([13]; MCF7 (Breast Cancer), 48 h): * (effect not reached at maximum dose of 0.05 millimolar)
Activity against breast cancer NCI-MCF7 ([13]; MT477 ACTUAL): Yes

Reference: patent publication US7652029B2, “Therapeutic compound and treatments” (priority 2004, dated 2010)
